Assay results published in patent US20090105245A1, “METHODS FOR TREATING MACULAR EDEMA AND OCULAR ANGIOGENESIS USING AN ANTI-INFLAMMATORY AGENT AND A RECEPTOR TYROSINE KINASE INHIBITOR” (priority 2006, published 2009).

Columns and labels:
Type in all cases: in vivo
[1] = test system: laser-induced choroidal neovascularization (CNV) in the mouse; test: Mouse laser-induced CNV, prevention paradigm, oral gavage; details: for inhibition of CNV: oral, prevention paradigm
[2] = test system: existing laser-induced choroidal neovascularization (CNV) in the mouse; test: Mouse laser-induced CNV, regression of existing CNV, intravitreal injection at 7 days post-laser; details: single intravitreal injection, mouse (FIG. 4)
Method: Methods. CNV was generated by laser-induced rupture of Bruch's membrane. Briefly, 4 to 5 week old male C57BL/6J mice were anesthetized using intraperitoneal administration of ketamine hydrochloride (100 mg/kg) and xylazine (5 mg/kg) and the pupils of both eyes dilated with topical ocular instillation of 1% tropicamide and 2.5% Mydfin®. One drop of topical cellulose (Gonioscopic®) was used to lubricate the cornea. A hand-held cover slip was applied to the cornea and used as a contact lens to aid visualization of the fundus. Three to four retinal burns were placed in randomly assigned eye (right or left eye for each mouse) using the Alcon 532 nm EyeLite laser with a slit lamp delivery system. The laser burns were used to generate a rupture in Bruch's membrane, which was indicated opthalmoscopically by the formation of a bubble under the retina. Only mice with laser burns that produced three bubbles per eye were included in the study. Burns were typically placed at the 3, 6, 9 or 12 o'clock positions in the posterior pole of the retina, avoiding the branch retinal arteries and veins. […]
METHODS: CNV was generated by laser-induced rupture of Bruch's membrane as described above in Example 3. […] Choroidal flat mounts were analyzed as described above in Example 3.

[3] = test system: diabetes-induced retinal vascular permeability; test: STZ diabetic rat retinal vascular permeability (Evan's blue albumin permeation), oral gavage
Method: METHODS: Diabetes was induced in male Long-Evans rats with 65 mg/kg streptozotocin (STZ) after an overnight fast. Upon confirmation of diabetes (blood glucose >250 mg/dl), treatment was initiated by oral gavage. Non-diabetic (NDM) and diabetic (DM) rats received oral gavage of either vehicle or RTK inhibitor at 1.5 or 5 mg/kg/d BID. After 2 weeks, jugular vein catheters were implanted 1 day prior to experimentation for the infusion of indicator dye. Retinal vascular permeability, RVP, was measured using Evan's blue albumin permeation (45 mg/kg) after a 2 hour circulation period.

For `Cc1ccc(F)c(NC(=O)Nc2ccc(-c3cccc4[nH]nc(N)c34)cc2)c1` [Compound 86, N-[4-[3-amino-1H-indazol-4-yl]phenyl]-N′-(2-fluoro-5-methylphenyl)urea], the “inhibition of CNV” value ([1]; 3 mg/kg/day) was “no significant inhibition”, the “inhibition of CNV” value ([1]; 20 mg/kg/d) was “complete inhibition of CNV” and the “inhibition of laser-induced CNV” value ([1]; oral gavage, mouse (FIG. 6)) was “inhibits laser-induced choroidal neovascularization (CNV)”. For the same compound, the “regression of existing laser-induced CNV” value [2] was “induces regression of existing laser-induced choroidal neovascularization (CNV)”, the “blood glucose levels and body weights” value ([3]; DM control vs DM treatment groups) was “not different between DM control and DM treatment groups” and the “tolerability, systemic or ERG side effects” value ([3]; oral RTKi, NDM and DM groups) was “well tolerated by both NDM and DM groups with no observed systemic or ERG side effects”.
